Data set [1] in a line: Toxicity of bis-compounds after single systemic dose. Conditions: mouse, in vivo, 16% cremaphor, single dose. Type of data set: in vivo.
A further data set relates to mice. The description is as above. The conditions noted are these: 16% cremaphor. It is filed as in vivo.
Data set [2] in a line: Cell viability (MTS) after treatment with bis-compound. It is filed as cell-based. Conditions: human, pha-activated pbmc, 5 μg/ml. On the procedure:
Human peripheral blood monocytes (PBMC) were obtained from commercial sources as a leukophoresis from a healthy volunteer and were purified by centrifugation on a Ficoll-Hypaque (Pharmacia) gradient (1700 rpm for 20 min). The "buffy" coat containing the PBMC was diluted with serum-free culture medium (SF-RPMI) to a volume of 50 ml and collected by centrifugation at 1500 rpm for 5 min. Cells were resuspended in cell culture medium containing 10% fetal bovine serum (RPMI-10) and phytohemaglutinin (PHA - 10 μg/ml) at a density of 5×10^6 cells/ml and were cultured for 3 days at 37° C. in a humidified CO2 incubator. The PHA-activated cells were collected by centrifugation, washed three times with an equal volume of SF-RPMI and resuspended in fresh RPMI-10 (1×10^6 cells /ml). Aliquots (100 μl) were dispensed into the wells of multiple 96-well plates to give a final cell number of 10^5 per well. Test compounds, dissolved in dimethyl sulfoxide (DMSO) at 1 mg/ml, were first diluted in culture medium to an intermediate concentration of 20 μg/ml and then were added (50 μwell) to a specific well of the plate for each compound. Stimulation medium (50 μl/well) containing 10% serum, IL-2 and IL-12 was added to final concentrations of 25 U/ml and 0.5 ng/ml, respectively. Control wells receive no IL-2 or IL-12 (negative control) or received both interleukins but no test compound (positive control). The plates were incubated for 48 hr at 37° C. in a CO2 incubator at which time aliquots (20 μl) were removed for analysis of IFN-γ concentration by ELISA. A quantitative ELISA was developed by coating 96-well plates with an mouse monoclonal antibody against human IFN-γ, 1 μg/ml in phosphate buffered saline (PBS) (Pestka Biological Laboratories), overnight at 4° C. Unbound antibody was washed off by washing three times with PBS. Non-specific antibody binding was blocked with a solution of 1% bovine serum albumin (BSA) and 1% goat serum in PBS (150 μl/well) which was incubated for 2 hr at 37° C. After washing the blocked plates four times with PBS, test samples and dilutions of the IFN-γ standard are added in a final volume of 100 μl/well. Following an overnight incubation at 4° C., the plates are washed four times with PBS, and a polyclonal rabbit antiserum against human IFN-γ (1/10000 dilution--Petska Biological Laboratories) is added. After an additional incubation for 1 hr at 37° C. and four washes with PBS, a polyclonal donkey anti-rabbit detecting antibody, conjugated to horseradish peroxidase (1/700 dilution--Petska Biological Laboratories) is added for 1 hr at 37° C. The plates are then washed four times with PBS and 100 μl of K-blue substrate E(ILISA Technologies, Neogen Corp.) is added until the color in the wells containing the standard curve is sufficiently developed, at which time 100 μl of "Red-stop" solution (ELISA Technologies) is added. The absorbance of the solution within each well of the plate is then read at 650 nm using an ELISA plate reader (Dynatech MR7000). The amount of IFN-γ is calculated by comparing the optical density of the test sample with a standard curve derived from the dilutions of the control IFN-y. […] MTS is a chemical chromophore that is metabolized in the mitochondria of viable cells to produce a color which increases in intensity in proportion to the numbers of viable cells. The absorbance of the cell culture can be compared to control cultures in order to determine the percent viability.

In data set [3] the test system is IL-12 induction of IFN-γ in PHA-activated human PBMC. The data set can be described thus: Screening assay for compounds which inhibit IL-12 induction of IFN-γ (ELISA). Conditions: 5 μg/ml, IL-2 25 U/ml + IL-12 0.5 ng/ml, 48 hr, single test, read-out: % INH of IFNγ. It is filed as cell-based. As for the experimental part: Human peripheral blood monocytes (PBMC) were obtained from commercial sources as a leukophoresis from a healthy volunteer and were purified by centrifugation on a Ficoll-Hypaque (Pharmacia) gradient (1700 rpm for 20 min). The "buffy" coat containing the PBMC was diluted with serum-free culture medium (SF-RPMI) to a volume of 50 ml and collected by centrifugation at 1500 rpm for 5 min. Cells were resuspended in cell culture medium containing 10% fetal bovine serum (RPMI-10) and phytohemaglutinin (PHA - 10 μg/ml) at a density of 5×10^6 cells/ml and were cultured for 3 days at 37° C. in a humidified CO2 incubator. The PHA-activated cells were collected by centrifugation, washed three times with an equal volume of SF-RPMI and resuspended in fresh RPMI-10 (1×10^6 cells /ml). Aliquots (100 μl) were dispensed into the wells of multiple 96-well plates to give a final cell number of 10^5 per well. Test compounds, dissolved in dimethyl sulfoxide (DMSO) at 1 mg/ml, were first diluted in culture medium to an intermediate concentration of 20 μg/ml and then were added (50 μwell) to a specific well of the plate for each compound. Stimulation medium (50 μl/well) containing 10% serum, IL-2 and IL-12 was added to final concentrations of 25 U/ml and 0.5 ng/ml, respectively. Control wells receive no IL-2 or IL-12 (negative control) or received both interleukins but no test compound (positive control). The plates were incubated for 48 hr at 37° C. in a CO2 incubator at which time aliquots (20 μl) were removed for analysis of IFN-γ concentration by ELISA. A quantitative ELISA was developed by coating 96-well plates with an mouse monoclonal antibody against human IFN-γ, 1 μg/ml in phosphate buffered saline (PBS) (Pestka Biological Laboratories), overnight at 4° C. Unbound antibody was washed off by washing three times with PBS. Non-specific antibody binding was blocked with a solution of 1% bovine serum albumin (BSA) and 1% goat serum in PBS (150 μl/well) which was incubated for 2 hr at 37° C. After washing the blocked plates four times with PBS, test samples and dilutions of the IFN-γ standard are added in a final volume of 100 μl/well. Following an overnight incubation at 4° C., the plates are washed four times with PBS, and a polyclonal rabbit antiserum against human IFN-γ (1/10000 dilution--Petska Biological Laboratories) is added. After an additional incubation for 1 hr at 37° C. and four washes with PBS, a polyclonal donkey anti-rabbit detecting antibody, conjugated to horseradish peroxidase (1/700 dilution--Petska Biological Laboratories) is added for 1 hr at 37° C. The plates are then washed four times with PBS and 100 μl of K-blue substrate E(ILISA Technologies, Neogen Corp.) is added until the color in the wells containing the standard curve is sufficiently developed, at which time 100 μl of "Red-stop" solution (ELISA Technologies) is added. The absorbance of the solution within each well of the plate is then read at 650 nm using an ELISA plate reader (Dynatech MR7000). The amount of IFN-γ is calculated by comparing the optical density of the test sample with a standard curve derived from the dilutions of the control IFN-y. The amount of IFN-γ that is induced in the presence of both IL-2 and IL-12 generally ranges from 1200-2000 pg/ml while the amount produced in the absence of IL-12 is generally less than 50 pg/ml. Experimental data are shown in Table 2 which discloses a) the percent inhibition of IFNγ production, relative to a […], when the cells have been treated with a bis-compound at a final concentration of 5 μg/ml of the listed bis-compound (%INH or IFNγ) and b) the percent of cells which are viable after the treatment with 5 μg/ml of the various bis-compounds, determined by adding MTS to the media (% Viability). MTS is a chemical chromophore that is metabolized in the mitochondria of viable cells to produce a color which increases in intensity in proportion to the numbers of viable cells. […]

The mark [4] stands for this setting: iv, 20% DMSO, conc. sol. 10 mg/ml.
Setting [5] is: 100 mg/kg IV, 20% DMSO, 10 mg/ml.
Where [6] appears, read: 150 mg/kg IV, 20% DMSO, 10 mg/ml.
The mark [7] stands for this setting: 100 mg/kg IV, 20% EGME, 10 mg/ml.
Where [8] appears, read: 150 mg/kg IV, 20% EGME, 10 mg/ml.
The mark [9] stands for this setting: 80 mg/kg IV, 20% DMSO, 10 mg/ml.

Entries after “also recorded” stand apart in the source; their conditions may differ. Where only a bound is given, the exact number is not on record here.

Consider eleven compounds from US5880146A, “Inhibition of IL-12-induced IFN-γ synthesis by specific bis-phenol compounds as a method of immune modulation” (Fuji ImmunoPharmaceuticals Corporation, priority 1995, dated 1999).

`CCC(C)(c1ccc(O)c(C)c1)c1ccc(O)c(C)c1` [Compound 54003] came in with an LD50 in data set [1] (setting [4]) of 100 to 150 mg/kg. Further, the “Results (Dead/Alive)” value was “Alive” with mice (setting [5]) and “Dead” with mice (setting [6]). The viability in data set [2] came to 85%. The inhibition at 5 µg/mL in data set [3] came to 101%.
In data set [1] (IV, 20% EGME, conc. sol. 10 mg/ml), `CCCCCC(c1cc(C)cc(C(C)(C)C)c1O)c1cc(C)cc(C(C)(C)C)c1O` [Compound 54018] displayed an LD50 of less than 100 mg/kg. Moreover, the “Results (Dead/Alive)” value in the data set on mice (setting [7]) and in the data set with mice (setting [8]) was “Dead” in each case. Also, the viability in data set [2] is 92%. Also, in data set [3], the inhibition at 5 µg/mL came to 55%.
As to `Cc1cc(C)c(O)c(Cc2cc(C)cc(C)c2O)c1` [Compound 51850], in data set [1] (setting [4]), the LD50 is greater than 150 mg/kg. For the same compound, the “Results (Dead/Alive)” value in the data set with mice (setting [5]) and with mice (setting [6]) was “Alive” throughout. Moreover, the viability in data set [2] was found to be 97%. Moreover, the inhibition at 5 µg/mL in data set [3] came to 77%.
Compound `CCCC(C)(c1cc(C)c(O)c(C)c1)c1cc(C)c(O)c(C)c1` [Compound 54064] had a 50% lethal dose (LD50) in data set [1] (setting [4]) of 100 to 150 mg/kg. The “Results (Dead/Alive)” value with mice (setting [5]) is given as “Alive”; in the data set with mice (setting [6]), “Dead”. For the same compound, in data set [2], the viability was found to be 112%. Besides, the inhibition at 5 µg/mL in data set [3] was 79%.
In data set [1] (IV, 20% DMSO, conc. sol. 10 mg/ml), `CCCCC(C)(c1cc(C)c(O)c(C)c1)c1cc(C)c(O)c(C)c1` [Compound 52782] registered an LD50 of less than 80 mg/kg. Besides, in the data set on mice (setting [9]), the “Results (Dead/Alive)” value is recorded as “Dead”. In data set [2], the viability was determined as 116%. Further, in data set [3], the inhibition at 5 µg/mL stood at 102%.
In data set [1] (setting [4]), `CCCC(c1cc(C)c(O)c(C)c1)c1cc(C)c(O)c(C)c1` [Compound 54044] yielded an LD50 greater than 150 mg/kg. In addition, the “Results (Dead/Alive)” value with mice (setting [5]) and in the data set with mice (setting [6]) was “Alive” each time. The viability in data set [2] came to 92%. Besides, the inhibition at 5 µg/mL in data set [3] was found to be 98%.
Take `Cc1cc(C)c(O)c(C(CCCCCCC(C)C)c2cc(C)cc(C)c2O)c1` [Compound 8302]: the 50% lethal dose (LD50) in data set [1] (setting [4]) is greater than 150 mg/kg; in data set [1] (iv, 20% DMSO, conc. sol. 15 mg/ml), 200 mg/kg. Moreover, the “Results (Dead/Alive)” value in the data set on mice (setting [5]) is given as “Alive”; in the data set with mice (setting [6]), “Alive”; with mice (200 mg/kg IV, 20% DMSO, 15 mg/ml) it was “Alive 1; also recorded: Dead 1”. Further, the viability in data set [2] came to 100%. Also, the inhibition at 5 µg/mL in data set [3] is 95%.
Turning to `CCCCCCC(c1cc(C)cc(C)c1O)c1cc(C)cc(C)c1O` [Compound 54015], the LD50 in data set [1] (setting [4]) is greater than 80 mg/kg. Also, in the data set with mice (setting [9]), the “Results (Dead/Alive)” value is on record as “Alive”. Also, the viability in data set [2] came to 34%. Besides, the inhibition at 5 µg/mL in data set [3] came out at 96%.
In turn, `CCCCCC(c1cc(C)cc(C)c1O)c1cc(C)cc(C)c1O` [Compound 54019] returned an LD50 in data set [1] (setting [4]) of 100 to 150 mg/kg. The “Results (Dead/Alive)” value in the data set on mice (setting [5]) is recorded as “Alive”; with mice (setting [6]) it was “Dead”. Further, in data set [2], the viability came out at 101%. Besides, the inhibition at 5 µg/mL in data set [3] turned out to be 77%.
`CCCCC(c1cc(C)cc(C(C)(C)C)c1O)c1cc(C)cc(C(C)(C)C)c1O` [Compound 54020] yielded an LD50 in data set [1] (iv, 20% EGME, conc. sol. 10 mg/ml) of 100 to 150 mg/kg. Besides, the “Results (Dead/Alive)” value is reported as “Alive” in the data set with mice (setting [7]) and “Dead” in the data set with mice (setting [8]). In addition, the viability in data set [2] was determined as 95%. Further, the inhibition at 5 µg/mL in data set [3] was determined as 69%.
Regarding `Cc1cc(C(CCc2ccccc2)c2cc(C)cc(C(C)(C)C)c2O)c(O)c(C(C)(C)C)c1` [Compound 54016], the LD50 in data set [1] (setting [4]) was greater than 150 mg/kg. In addition, the “Results (Dead/Alive)” value in the data set with mice (setting [5]) and in the data set with mice (setting [6]) was “Alive” each time. Moreover, the viability in data set [2] came out at 98%. Further, the inhibition at 5 µg/mL in data set [3] came out at 26%.
